According to patent publication US8354522B2, “Immunostimulatory oligoribonucleotides” (Coley Pharmaceutical GmbH, priority 2005, dated 2013):
Read-outs that look alike come from different tables or passages of the source.

Test system: Human PBMC
Test: Cytokine production upon human PBMC stimulation (ORN complexed to DOTAP, 16 h, ELISA)
Assay type: cell-based
Set-up: key to IFN-alpha / TNF-alpha: +: cytokine production; −: no cytokine production
Details: for EC50 / IFN-alpha max activity / TNF-alpha max activity: ORN complexed to DOTAP, 16 h; for EC50: full titration 2 μM to 0.9 nM; for IFN-alpha max activity / TNF-alpha max activity: mean max activity at 0.6 μM, 3-6 blood donors; for IFN-alpha / TNF-alpha: human PBMC stimulated for 16 h, supernatant ELISA
Protocol: Human peripheral blood mononuclear cells (PBMCs) were isolated from healthy donors, plated, and stimulated in vitro with various test and control immunostimulatory agents for 16 hours. After 16 hours, the supernatants were collected and then analyzed by ELISA assay. N-U-R1-R2,-Containing Oligoribonucleotides were tested complexed to DOTAP and with full titration curves (7 concentrations), starting from 2 μM ORN complexed to 25 μg/ml DOTAP and with 1/3 dilution steps. Also included were certain negative controls, including medium alone and DOTAP (25 μg/ml culture well; “Liposomes”) alone. The control immunostimulatory agents included the imidazoquinoline R-848 (2 μM with 1/3 dilution steps and 7 concentrations) the reported ligand for TLR7, ORN having TLR8 motifs such as AU and AUU sequences (SEQ ID NO:13-SEQ ID NO:15) ORN having TLR7/8 motifs such as CU, GU and GUU sequences (SEQ ID NO:19-SEQ ID NO:23).
Human PBMC were stimulated with ORN complexed to DOTAP. After 16 hours supernatants were harvested and TNF-alpha and IFN-alpha levels were measured. Mean/Max activities at 0.6 μM of 3-6 blood donors and two individual experiments were determined. […] TLR8 and TLR7/8 ORN are divided by a red line.
Human PBMC were stimulated with ORN complexed to DOTAP. After 16 hours supernatants were harvested and IFN-alpha levels were measured. Mean/Max activities at 0.6 μM and EC50 of full titration curves (range: 2 μM to 0.9 nM) of 3-6 blood donors and two individual experiments were determined. […] Low EC50/high Max activity represents TLR7/8 ORN (FIG. 5a) whereas high EC50 and low Max activity represents TLR8 ORN (FIG. 5b).
The ORN sequences listed in Table 1 were tested for IFN-alpha and TNF-alpha production upon human PBMC stimulation. Human PBMC were stimulated for 16 h with the indicated ORN, and supernatants were harvested and cytokine production measured by ELISA. Table 2 summarizes the min/max activity and EC50 of ORN for IFN-alpha and TNF-alpha production.

[1] = human PBMC, read-out: IFN-alpha EC50
[2] = human PBMC, read-out: TNF-alpha EC50

Row | Substance | EC50 [1] [nM] | EC50 [2] [nM] | IFN-alpha max activity (human PBMC) [pg/mL] | TNF-alpha max activity (human PBMC) [pg/mL] | IFN-alpha | TNF-alpha | IFN-alpha production upon PBMC stimulation (in words) (human PBMC) | TNF-alpha production upon PBMC stimulation (in words) (human PBMC)
1 | C*C*G*A*G*C*C*G*A*U*C*U*U*A*C*C (CCGAGCCGAUCUUACC; listed as RNA, chemistry not fully specified) [SEQ ID NO: 64] | 577 | 289 | 1421 | 30712 |  |  |  | 
2 | U*U*U*G*U*U*U*G*U*U*U*G*U*U*U*G*U*U*U*G (UUUGUUUGUUUGUUUGUUUG; listed as RNA, chemistry not fully specified) [SEQ ID NO: 22] |  |  |  |  | + | + |  | 
3 | C*C*G*A*G*C*C*G*C*A*U*A*C*C*C*C (CCGAGCCGCAUACCCC; listed as RNA, chemistry not fully specified) [SEQ ID NO: 45] | 1700 | 754 | 98.44 | 10491 |  |  |  | 
4 | C*C*G*A*G*C*C*G*A*T*U*U*U*A*C*C (CCGAGCCGANUUUACC; Oligoribonucleotide, chemistry of T and the '*' linkage is not given here, further chemistry not given here) [SEQ ID NO: 59] | 74 | 224 | 1714 | 26762 |  |  |  | 
5 | C*U*A*C*U*A*C*U*A*C*U*A*C*U*A*C*U*A*C*U (CUACUACUACUACUACUACU; listed as RNA, chemistry not fully specified) [SEQ ID NO: 24] |  |  |  |  | − | + | no IFN-alpha production | TNF-alpha inducing
6 | C*C*G*A*G*C*C*G*A*A*G*G*U*G*C*C (CCGAGCCGAAGGUGCC; listed as RNA, chemistry not fully specified) [SEQ ID NO: 83] | > 2000 | 215 | 96.22 | 12207 |  |  |  | 
7 | C*C*G*A*G*C*C*G*C*A*A*U*U*C*C*C [SEQ ID NO: 52] (CCGAGCCGCAAUUCCC; listed as RNA, chemistry not fully specified) | 508 | 895 | 2263 | 11920 |  |  |  | 
8 | U*U*I*U*U*I*U*U*I*U*U*I*U*U*I*U*U*I*U*U (UUNUUNUUNUUNUUNUUNUU; inosine, phosphorothioate linkages, chemistry not fully specified) [SEQ ID NO: 28] |  |  |  |  | + | + |  | 
9 | C*C*G*A*G*C*C*G*A*G*C*U*C*A*C*C (CCGAGCCGAGCUCACC; listed as RNA, chemistry not fully specified) [SEQ ID NO: 81] | 667 | 802 | 842.9 | 14519 |  |  |  | 
10 | C*C*G*A*G*C*C*G*A*A*G*C*U*A*C*C (CCGAGCCGAAGCUACC; listed as RNA, chemistry not fully specified) [SEQ ID NO: 87] | > 2000 | 346 | 100.5 | 12979 |  |  |  | 
11 | C*C*G*A*G*C*C*G*A*A*G*G*U*C*C*C (CCGAGCCGAAGGUCCC; listed as RNA, chemistry not fully specified) [SEQ ID NO: 86] | 767 | 850 | 856.5 | 4178 |  |  |  | 
12 | U*C*U*C*U*C*U (UCUCUCU; phosphorothioate linkages, chemistry not fully specified) [SEQ ID NO: 32] |  |  |  |  | + | + |  | 
13 | C*C*G*A*G*C*C*A*U*A*U*A*U*C*C*C (CCGAGCCAUAUAUCCC; listed as RNA, chemistry not fully specified) [SEQ ID NO: 38] | ≥ 1500 | 890 | 245 | 14064 |  |  |  | 
